Key:
HN-5 cells [1] = assay: Cell proliferation assay (MTT assay); format: cell-based; conditions: AC480 50 nM—1 μM, 72 hrs
Experimental: (§1) The radiosensitization effect of AC480 was evaluated in vitro using head neck squamous cell carcinoma cells, HNSCC-10, which express HER2 only and have no detectable amount of HER1 protein, and HN-5 cells, which express high levels of HER1 and HER2 proteins. […] AC480 was added to cell cultures that contained either HN-5 or HNSCC-10 cells 6 hrs before and kept in the medium for additional 66 hrs after irradiation. The cancerous cells were then irradiated with graded single doses of γ-radiation. At various predetermined time points after irradiation, the cells were assessed: (a) for clonogenic survival using clonogenic survival assays; (b) for apoptosis using aTUNEL assay; (c) for cell cycle distribution with FACS; and (d) for protein expression related to the cell cycle, apoptosis, and DNA repair, using Western blotting and immunoprecipitation methods.
(§2) The effect of AC480 on cell proliferation of HN-5 and UMSCC-10 cells was determined using 3-[4,5-dimethylthiozol-2-yl]-2,5-diphenyltetrazolium bromide (MTT) assay. HN-5 and UMSCC-10 cells are plated in 96-well plates and treated with a series of concentrations of AC480. […] The cells are then lysed in 150 μL of ethanol/DMSO mixture (1:1), and the absorbance read at 540 nm using a 96-well plate reader.

UMSCC-10 cells [2] = assay: Cell proliferation assay (MTT assay); format: cell-based; conditions: AC480 50 nM—1 μM, 72 hrs
Experimental: as §1, §2

HN-5 cells [3] = assay: Clonogenic survival assay with γ-irradiation; format: cell-based; conditions: for dose enhancement ratio at survival fraction of 0.5: cell line not named in the sentence (HN-5 by context)
Experimental: as §1
(§3) HN-5 or UMSCC-10 cells were counted and plated. Twenty-four hours later, the cells in culture were then exposed to AC480 at 300 or 600 nM for 6 hrs. The cells were then irradiated with graded doses at 2, 4, or 6 Gy of γ-rays using a ^137Cs source (3.7 Gy/min). Sixty-six hours later, culture media with AC480 were removed and fresh media were added. Media change was also done for untreated control cells at the same time. After 11 to 14 days of incubation, colonies were counted. […] The dose enhancement ratio at survival fraction of 0.5 was 1.30 for 300 nM and 1.43 for 600 nM of AC480. Dose enhancement ratio was calculated by dividing the radiation dose required to achieve a surviving fraction of 0.5 in the absence of AC480 with the radiation dose required to achieve the same surviving fraction in the presence of AC480 at a specified concentration.

UMSCC-10 cells [4] = assay: Clonogenic survival assay with γ-irradiation; format: cell-based; conditions: AC480 300 or 600 nM from 6 hrs before to 66 hrs after 2, 4 or 6 Gy γ-rays
Experimental: as §1, §3

HN-5 cells [5] = assay: TUNEL assay, radiation-induced apoptosis; format: cell-based
Experimental: as §1
(§4) Apoptotic cells are detected by in-situ labeling of fragmented DNA with enzymatically labeled nucleotides using the TUNEL method as described in commercial protocols or by following the procedure described in Sgonc et al., Trends in Genetic 1994, 10, 41-42. AC480 increased radiation-induced apoptosis in HN-5 but not in UMSCC-10 cells (FIG. 5).

UMSCC-10 cells [6] = assay: TUNEL assay, radiation-induced apoptosis; format: cell-based
Experimental: as §1, §4

HN-5 cells [7] = assay: Cell-cycle analysis (FACS) after radiation; format: cell-based
Experimental: as §1
(§5) Cell cycle distribution is measured by determining the ploidy of cells by staining the cells with fluorescent dye and sorting by FACS using a commercially available kit. AC480 increased radiation-induced accumulation of HN-5 but not in UMSCC-10 cells in the G1 cell cycle phase (FIG. 6).

UMSCC-10 cells [8] = assay: Cell-cycle analysis (FACS) after radiation; format: cell-based
Experimental: as §1, §5

γ-H2AX foci = γ-H2AX foci immunocytochemistry (DNA repair); format: cell-based; conditions: 24 hrs after radiation; AC480 600 nM (FIG. 7)
Experimental: The control is shown as open circle and solid line.
as §1
The extent of DNA repair is quantified by measuring the generation of nuclear foci at the site of DNA damage by phosphorylated H2AX (γ-H2AX), which is involved in the retention of repair and signaling factor complexes at sites of DNA double strand breaks. γ-H2AX is detected with antibodies to phosphorylated H2AX using traditional immunohistochemistry (See, e.g., Friesner et al., Mol. Biol. Cell. 2005, ^-16, 2566-2576; and Dote et al., Clin. Cancer Res. 2005, 11, 4571-4579). […]

HN-5 tumor xenografts = assay: Tumor growth delay assay, HN-5 tumor xenografts; format: in vivo, nude male mice; conditions: AC480 120 mg/kg gavage once daily for 14 days
Experimental: The terms “dose enhancement ratio” and “dose enhancement factor” are used interchangeably herein and are used herein to measure the fold increase in cytotoxic efficacy of radiation when delivered in the presence of a radiosensitizer. In certain embodiments, dose enhancement ratio is calculated by dividing the radiation dose required to achieve a surviving fraction in the absence of the radiosensitizer with the radiation dose required to achieve the same surviving fraction in the presence of the radiosensitizer at a specified concentration. This calculation method can be used to assess the radiosensitizing effect of an radiosensitizer in an in vitro system, such as cells in culture. […]
The effect of AC480 on radioresponse was assessed by tumor growth delay assay using HN-5 tumor xenografts generated in nude male mice.
Specifically, HN-5 cells (1×10^6) were injected into the right leg of 3-4 month old nude male mice (nu-nu/Ncr) (SPF mice). […] Tumors were measured with calipers 3 times/week to determine tumor growth delay. […]

[9] = tested on: adenocarcinomas expressing HER1 and/or HER2 in salivary gland, breast, non-small cell lung, and gastric cancer cell lines; conditions: Wong et al., Clin. Cancer Res. 2006; cited from earlier work

## Cc1c(NC(=O)OC[C@@H]2COCCN2)cn2ncnc(Nc3ccc4c(cnn4Cc4cccc(F)c4)c3)c12 [AC480]
HN-5 cells [1]
  effect on cell growth (MTT): inhibits the growth
UMSCC-10 cells [2]
  effect on cell growth (MTT): not
HN-5 cells [3]; 300 nM AC480
  dose enhancement ratio at survival fraction of 0.5: 1.30
HN-5 cells [3]; 600 nM AC480
  dose enhancement ratio at survival fraction of 0.5: 1.43
HN-5 cells [3]; HN-5 cells, AC480 300 or 600 nM from 6 hrs before to 66 hrs after 2, 4 or 6 Gy γ-rays
  effect on radiosensitivity (clonogenic survival): significantly enhanced
UMSCC-10 cells [4]
  effect on radiosensitivity (clonogenic survival): not
HN-5 cells [5]
  effect on radiation-induced apoptosis (TUNEL): increased
UMSCC-10 cells [6]
  effect on radiation-induced apoptosis (TUNEL): not
HN-5 cells [7]
  effect on radiation-induced accumulation of cells in the G1 cell cycle phase: increased
UMSCC-10 cells [8]
  effect on radiation-induced accumulation of cells in the G1 cell cycle phase: not
γ-H2AX foci
  presence of γ-H2AX foci after radiation: prolonged
HN-5 tumor xenografts; before and during radiation (5 Gy×5 days)
  effect on radioresponse of HN-5 tumors in vivo: improve the radioresponse
HN-5 tumor xenografts; with XRT 5 Gy×5 consecutive days, HN-5 xenografts in nude mice
  enhancement factor (tumor growth delay): 1.9
[9]
  cytotoxicity: cytotoxic

From patent US20110086850A1, “RADIOSENSITIZATION OF TUMORS WITH INDAZOLPYRROLOTRIAZINES FOR RADIOTHERAPY” (Board of Regents, The University of Texas System, priority 2008, published 2011)
